Source: PMC10829512, “Transport of metformin metabolites by guanidinium exporters of the small multidrug resistance family” (The Journal of General Physiology, 2024)
Read-outs that look alike come from different tables or passages of the source.

Columns and labels:
[1] = target: T1, Gdx-Clo (Clostridiales bacterium oral taxon 876, UniProt U2EQ00); assay: Tryptophan fluorescence substrate binding; parameters: species or system Clostridales oral taxon 876
T1 sequence (U2EQ00 1-105): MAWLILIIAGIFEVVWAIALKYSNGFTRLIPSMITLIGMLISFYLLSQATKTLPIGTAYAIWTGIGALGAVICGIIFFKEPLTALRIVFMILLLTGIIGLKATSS
Procedure: Fluorescence emission spectra (λex = 280 nm, […]) were collected for 1 µM purified protein in assay buffer containing 200 mM NaCl, 10 mM HEPES, 10 mM bicine, 10 mM NaPO4, and 5 mM DM, with pH adjusted from 6.5 to 9.0. Substrate was added from a stock solution prepared in assay buffer. For Gdm^+ titrations, the change in fluorescence, F, as a function of substrate fit to a single site binding isotherm, ∆F=(Fmax[S]/Kd+[S]). (3)
To derive the Ka values and Kd values from the apparent Kd measured as a function of pH, we used the following equation, which uses the approximation that the protonatable E13 sidechains have equal Ka values: Kd,app=(Kd)*(1+([H^+]/Ka))*(1+([H^+]/Ka)). (5)

[2] = target: T1, Gdx-Clo; assay: Pyranine stoichiometry assay in proteoliposomes; format: biochemical, Clostridales oral taxon 876; conditions: 10-fold substrate gradient, equilibrium at −60 mV
Procedure: Unilamellar liposomes were formed by extrusion through a 400-nm membrane filter and the external pyranine was removed by passing liposomes through a Sephadex G-50 column spin column equilibrated in an internal buffer with substrate. The external assay buffers contained 25 mM HEPES, pH 7.53, 0.4 mM substrate, and varying KCl concentration (3–46 mM) to establish the membrane potential, with NaCl to bring the total salt concentration to 200 mM. Proteoliposomes were diluted 200-fold into the external buffer, and after ∼30 s to establish a baseline, valinomycin (final concentration 0.2 ng/ml) was added together with the substrate (final concentration 4 mM). Fluorescence spectra were monitored (λex = 455 nm; λem = 515 nm) for ∼300 s. The membrane potential was calculated using the Nernst potential for K^+: ψcalc=RT/Fln[K^+]out/[K^+]in. (1)
Fluorescence emission time courses were corrected for baseline drift measured prior to substrate and valinomycin addition. The stoichiometry was determined from the voltage at which electrochemical equilibrium occurred (no change in fluorescence over time) using the following equation: Erev=(n/m−n*RT/Fln[substrate^+]in/[substrate^+]out), (2) where n and m represent the stoichiometric coefficients of substrate and protons, respectively. […]

[3] = target: Fluc-Bpe (Bordetella pertussis, UniProt Q7VYU0); assay: SSM electrophysiology cross-reactivity control with individually reconstituted Fluc-Bpe; format: biochemical
Procedure: SSM experiments were performed using SURFE^2R N1 instrument (Nanion Technologies). Sensors were prepared with a 1,2-diphytanoyl-sn-glycero-3-phosphocholine (DPhPC) lipid monolayer according to published protocols ([Bazzone et al., 2017]). Each sensor’s capacitance and conductance were verified before use (<80 nF capacitance, <50 nS conductance) using Nanion software protocols. Proteoliposome stock was diluted 1:25 in assay buffer (100 mM KCl, 100 mM KPO4, pH 7.5) prior to adsorption to the DPhPC monolayer. For substrate screening experiments, reference substrate samples (Gdm^+ for SMRGdx, and TPA^+ for SMRQac) were checked periodically to test for the stability of the sensor; if the current amplitude of the reference compound differed by >10% on one sensor, it indicated the desorption of liposomes, and the sensor was not used for further experiments. For every SSM electrophysiology experiment, we used the same general solution exchange protocol: after 2 s perfusion with a non-activating solution, we perfused substrate-containing buffer for 2 s and then returned to the equilibrium condition with a 4 s perfusion of non-activating buffer. […]
The adsorption of proteoliposomes to the sensor is subject to considerable variability from experiment to experiment, so the current measurements from different sensors cannot be quantitatively compared ([Barthmes et al., 2016]). […]

[4] = target: Gdx-pPro (Citrobacter freundii, UniProt O69279); conditions: for Transport currents in substrate screen: 2 mM substrate
[5] = pH 6.5, tryptophan fluorescence, mean ± SEM, read-out: Kd (apparent) for substrate binding to Gdx-Clo
[6] = pH 7.0, tryptophan fluorescence, mean ± SEM, read-out: Kd (apparent) for substrate binding to Gdx-Clo
[7] = pH 7.5, tryptophan fluorescence, mean ± SEM, read-out: Kd (apparent) for substrate binding to Gdx-Clo
[8] = pH 8.0, tryptophan fluorescence, mean ± SEM, read-out: Kd (apparent) for substrate binding to Gdx-Clo
[9] = pH 8.5, tryptophan fluorescence, mean ± SEM, read-out: Kd (apparent) for substrate binding to Gdx-Clo
[10] = pH-independent Kd, glutamates assumed to have equal Ka, read-out: Kd from fit of apparent Kd versus pH to Eq. 5

Sequence of Gdx-pPro (O69279 2-105): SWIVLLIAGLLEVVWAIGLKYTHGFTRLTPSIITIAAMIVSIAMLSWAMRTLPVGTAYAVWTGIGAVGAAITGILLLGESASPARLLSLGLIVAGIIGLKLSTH
Sequence of Fluc-Bpe (Q7VYU0 whole entry): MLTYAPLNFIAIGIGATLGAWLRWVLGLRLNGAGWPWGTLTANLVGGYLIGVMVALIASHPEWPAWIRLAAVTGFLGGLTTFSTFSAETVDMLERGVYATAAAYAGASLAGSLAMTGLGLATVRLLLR

SMILES	Kd [1, 5]	Kd [1, 6]	Kd [1, 7]	Kd [1, 8]	Kd [1, 9]	Kd [1, 10]	Proton coupling stoichiometry [2]	Response of Fluc-Bpe to substrate perfusion [3]	Transport currents in substrate screen [4]	Maximal velocity for Gdm+ relative to guanylurea ([4]; substrate at fivefold Km, normalized to Fluc-Bpe fluoride current)	Kd ([1]; pH 9.0, tryptophan fluorescence, mean ± SEM, read-out: Kd (apparent) for substrate binding to Gdx-Clo)
N=C(N)N [Gdm^+, guanidinium]	4300 ± 1000 µM	1500 ± 300 µM	960 ± 120 µM	660 ± 80 µM	480 ± 100 µM	600 µM	2 H^+: 1 solute	do not elicit a response	negative capacitive currents	approximately twofold higher	–
N=C(N)NC(N)=O [Guanylurea, guanylurea]	860 ± 220 µM	190 ± 20 µM	120 ± 20 µM	59 ± 1 µM	91 ± 16 µM	70 µM	2 H^+: 1 solute	do not elicit a response	negative capacitive currents	–	63 ± 5 µM
